Measurements as given in patent publication US12479816B2, “20-HETE formation inhibitors” (UNIVERSITY OF PITTSBURGH—OF THE COMMONWEALTH SYSTEM OF …, priority 2019, dated 2025).

Key:
rCYP4F2 = biological target: T1, rCYP4F2 (Homo sapiens, UniProt P78329); test: Inhibition of 20-HETE formation at 250 or 500 nM in rCYP4F2 incubations; assay type: biochemical; details: 500 nM compound; rCYP4F2 25 pmol/mL; read-out: rCYP4F2 % inh. @ 500 nM
T1 sequence (P78329 5-520): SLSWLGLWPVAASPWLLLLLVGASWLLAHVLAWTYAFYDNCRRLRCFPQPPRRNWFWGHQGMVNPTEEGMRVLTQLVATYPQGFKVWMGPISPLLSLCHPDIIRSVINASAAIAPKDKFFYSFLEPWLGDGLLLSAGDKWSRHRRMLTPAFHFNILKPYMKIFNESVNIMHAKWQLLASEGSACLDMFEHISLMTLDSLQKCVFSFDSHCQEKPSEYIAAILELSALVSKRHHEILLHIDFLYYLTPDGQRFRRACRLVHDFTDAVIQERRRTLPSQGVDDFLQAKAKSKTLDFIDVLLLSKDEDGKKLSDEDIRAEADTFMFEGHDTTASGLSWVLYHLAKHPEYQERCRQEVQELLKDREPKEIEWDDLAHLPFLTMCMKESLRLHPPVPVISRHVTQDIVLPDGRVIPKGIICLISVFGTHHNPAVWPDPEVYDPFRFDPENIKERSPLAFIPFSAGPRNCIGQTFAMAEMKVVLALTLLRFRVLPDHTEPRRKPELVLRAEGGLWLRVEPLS
Method: (§1) To screen the inhibitory effects against 20-HETE formation, compounds were screened in HLM, RLM, RKM and rCYP4F2 microsomal incubations. Compounds dissolved in either 100% methanol or 100% DMSO to yield 10 mM stock solution. Microsomal incubations containing HLM, RLM, RKM (300 μg/ml) or rCYP4F2 (25 pmol/mL), AA (100 μM), NADPH (1 mM) treated with test compounds at various concentrations (500 nM or 250 nM) in a 1 ml total volume in incubation buffer (0.12 M potassium phosphate buffer containing 5 mM magnesium chloride). Reaction was started by adding NADPH to the incubates and was carried out at 37° C. in a shaking water bath for 20 min. Reaction was stopped by placing tubes on ice, followed by adding 125 μl 20-HETE-d6 as internal standard to each sample. Microsomal incubations were extracted with 3 ml ethyl ether twice, dried down under nitrogen gas and reconstituted in 125 μl 80:20 methanol:deionized H2O for analysis. 20-HETE formation was quantified using a validated UPLC-MS/MS assay and normalized by vehicle group. Each compound had three replications (n=3). Vehicle group was used as control to calculate percentage of 20-HETE formation rate. HET0016 (250 nM) was used as positive control. Incubates without NADPH group served as the negative control. An Acquity ultra performance LC autosampler (Waters, Milford, MA) was used to isolate 20-HETE on an UPLC BEH C18, 1.7 μm (2.1×100 mm) reversed-phase column (Waters, Milford, MA) protected by a guard column (2.1×5 mm; Waters, Milford, MA) of the same packing material. Column temperature was maintained at 55° C. Mobile phases consisted of 0.005% acetic acid, 5% acetonitrile in deionized water (A) and 0.005% acetic acid in acetonitrile (B). The flow rate for mobile phases is 0.5 ml/min. The initial mixture of mobile phase was 65:35 of A and B. Mobile phase B increased at 0.4 minutes after injection from 35% to 70% in a linear gradient over 4 minutes, and again increased to 95% over 0.5 minutes where it remained for 0.3 minutes. This was followed by a linear return to initial conditions over 0.1 minutes with a 1.5 minute pre-equilibration period prior to the next sample run. Total run time was 6.4 minutes for each injection. Injection volumes were 7.5 μl. Mass spectrometric analysis was carried out using a TSQ Quantum Ultra (Thermo Fisher Scientific, San Jose, CA) triple quadrupole mass spectrometer using heated electrospray ionization (HESI). Mass spectrometer was operated in negative selective reaction monitoring (SRM) mode with unit resolutions at both Q1 and Q3 set at 0.70 Da full width at half maximum. Scan time was set at 0.01 s and collision gas pressure was 1.3 mTorr. Quantitation of 20-HETE by SRM was performed by monitoring the m/z. Analytical data was acquired and analyzed using Xcaliber 3.0 data system (ThermoFinnigan, San Jose, CA).

[1] = test system: 20-HETE formation (CYP4) in RLM; test: Inhibition of 20-HETE formation at 250 or 500 nM in RLM microsomal incubations; assay type: biochemical, rat; details: 500 nM compound; RLM 300 μg/ml
Method: as §1

[2] = test system: 20-HETE formation (CYP4) in HLM; test: Inhibition of 20-HETE formation at 250 or 500 nM in HLM microsomal incubations; assay type: biochemical, human; details: 500 nM compound; HLM 300 μg/ml, AA 100 μM, 20 min
Method: as §1

Compound	inhibition at 0.5 µM (rCYP4F2) [%]	RLM % inh. @ 500 nM [1] [%]	HLM % inh. @ 500 nM [2] [%]
COc1ccccc1C1CCN(c2ccn[nH]2)CC1 [Compound 21, 4-(2-Methoxyphenyl)-1-(1H-pyrazol-5-yl)piperidine]	2	0.00	8.80
COc1ccccc1C1CCN(c2cn[nH]c2)CC1 [Compound 22, 4-(2-Methoxyphenyl)-1-(1H-pyrazol-4-yl)piperidine]	0	0.00	0.00
Cc1n[nH]cc1N1CCC(c2ccccc2)CC1 [Compound 37, 1-(3-Methyl-1H-pyrazol-4-yl)-4-phenylpiperidine]	31.9	0.00	0.00
Cc1cc(N2CCC(c3ccccc3)CC2)[nH]n1 [Compound 38, 1-(5-Methyl-1H-pyrazol-5-yl)-4-phenylpiperidine]	22.3	0.00	0.00
c1ccc(SC2CCN(c3ccn[nH]3)CC2)cc1 [Compound 39, 4-(Phenylthio)-1-(1H-pyrazol-5-yl)piperidine]	22.7	0.00	6.00
COC(=O)c1cccc(C2CCN(c3ccn[nH]3)CC2)c1 [Compound 56, Methyl 3-(1-(1H-pyrazol-5-yl)piperidin-4-yl)benzoate]	11.4	0.00	0.00
COC(=O)c1cccc(C2CCN(c3cn[nH]c3)CC2)c1 [Compound 57, Methyl 3-(1-(1H-pyrazol-4-yl)piperidin-4-yl)benzoate]	41.2	43.10	0.00
COc1ccc(SC2CCN(c3ccn[nH]3)CC2)cc1 [Compound 68, 4-((4-Methoxyphenyl)thio)-1-(1H-pyrazol-5-yl)piperidine]	70.9	0	48
COc1cccc(SC2CCN(c3cn[nH]c3)CC2)c1 [Compound 76, 4-((3-Methoxyphenyl)thio)-1-(1H-pyrazol-4-yl)piperidine]	71	0.00	84
O=C(c1ccc(C2CCN(c3cn[nH]c3)CC2)cc1)N1CCCC1 [Compound 77, (4-(1-(1H-Pyrazol-4-yl)piperidin-4-yl)phenyl)(pyrrolidin-1-yl)methanone]	55	13.80	84.4
O=C(c1ccc(C2CCN(c3ccn[nH]3)CC2)cc1)N1CCCC1 [Compound 78, (4-(1-(1H-Pyrazol-5-yl)piperidin-4-yl)phenyl)(pyrrolidin-1-yl)methanone]	31	0.00	83.6
COc1ccc(CC2CCN(c3ccn[nH]3)CC2)cc1 [Compound 79, 4-(4-Methoxybenzyl)-1-(1H-pyrazol-5-yl)piperidine]	62	4.00	60
O=C(c1ccc(C2CCN(c3ccn[nH]3)CC2)c(F)c1)N1CCCC1 [Compound 82]	36	2.00	75
O=S(=O)(c1ccc(C2CCN(c3cn[nH]c3)CC2)cc1)N1CCCC1 [Compound 85, 1-(1H-Pyrazol-4-yl)-4-(4-(pyrrolidin-1-ylsulfonyl)phenyl)piperidine]	64	0.00	81.3
FC(F)(F)c1ccnc(C2CCN(c3cn[nH]c3)CC2)c1 [Compound 86, 2-(1-(1H-pyrazol-4-yl)piperidin-4-yl)-4-(trifluoromethyl)pyridine]	49.4	18.10	37.9
FC(F)(F)c1ccnc(C2CCN(c3ccn[nH]3)CC2)c1 [Compound 87, 2-(1-(1H-Pyrazol-5-yl)piperidin-4-yl)-4-(trifluoromethyl)pyridine]	7.4	2.70	15.6
c1cnc(SC2CCN(c3cn[nH]c3)CC2)nc1 [Compound 88, 2-((1-(1H-Pyrazol-4-yl)piperidin-4-yl)thio)pyrimidine]	26.4	0.00	39.8
Clc1cccc(CC2CCN(c3cn[nH]c3)CC2)c1 [Compound 90, 4-(3-chlorobenzyl)-1-(1H-pyrazol-4-yl)piperidine]	70.3	20.80	67
Clc1cccc(CC2CCN(c3ccn[nH]3)CC2)c1 [Compound 91, 4-(3-Chlorobenzyl)-1-(1H-pyrazol-5-yl)piperidine]	39.1	0.00	40.4
Fc1ccccc1SC1CCN(c2cn[nH]c2)CC1 [Compound 92, 4-((2-Fluorophenyl)thio)-1-(1H-pyrazol-4-yl)piperidine]	87.1	0.00	77.3
Cc1cccc(CC2CCN(c3cn[nH]c3)CC2)c1 [Compound 94, 4-(3-Methylbenzyl)-1-(1H-pyrazol-4-yl)piperidine]	60.3	13.50	61.3
FC(F)(F)c1cncc(C2CCN(c3cn[nH]c3)CC2)c1 [Compound 95, 4 3-(1-(1H-Pyrazol-4-yl)piperidin-4-yl)-5-(trifluoromethyl)pyridine]	26.3	15.40	42.8
O=S(=O)(c1ccc(C2CCN(c3ccn[nH]3)CC2)cc1)N1CCCC1 [Compound 96, 1-(1H-Pyrazol-5-yl)-4-(4-(pyrrolidin-1-ylsulfonyl)phenyl)piperidine]	16.4	0.00	63.10
Cc1cccc(CC2CCN(c3ccn[nH]3)CC2)c1 [Compound 97, 4-(3-Methylbenzyl)-1-(1H-pyrazol-5-yl)piperidine]	22.9	0.00	35.30
